# From patent publication US10188634B2, “3-(3H-imidazo[4,5-C]pyridin-2-yl)-1 H-pyrazolo[4,3-B]pyridines and therapeutic uses thereof” (Samumed, LLC, priority 2015, dated 2019)
# Test system: Wnt activity (Sp5-Luc reporter, human Sp5 promoter with eight TCF/LEF binding sites) in SW480 colon carcinoma cells
# Experiment: Screening assay for Wnt activity: Sp5-Luc reporter gene assay in SW480 cells
# Assay type: cell-based
# Conditions: for inhibition at 10 µM: read-out: percent inhibition at 10 μM (given for EC50 of >10 μM); for EC50: 10-point dose-response starting from 10 μM, overnight incubation
# Source text: The screening assay for Wnt activity is described as follows. Reporter cell lines can be generated by stably transducing cancer cell lines (e.g., colon cancer) or primary cells (e.g., IEC-6 intestinal cells) with a lentiviral construct that includes a Wnt-responsive promoter driving expression of the firefly luciferase gene.
# SW480 colon carcinoma cells were transduced with a lentiviral vector expressing luciferase with a human Sp5 promoter consisting of a sequence of eight TCF/LEF binding sites. SW480 cells stably expressing the Sp5-Luc reporter gene and a hygromycin resistance gene were selected by treatment with 150 μg/mL of hygromycin for 7 days. These stably transduced SW480 cells were expanded in cell culture and used for all further screening activities. Each compound was dissolved in DMSO as a 10 mM stock and used to prepare compound source plates. Serial dilution (1:3, 10-point dose-response curves starting from 10 μM) and compound transfer was performed using the ECHO 550 (Labcyte, Sunnyvale, Calif.) into 384-well white solid bottom assay plates (Greiner Bio-One) with appropriate DMSO backfill for a final DMSO concentration of 0.1%. For Sp5-Luc reporter gene assays, the cells were plated at 4,000 cells/well in 384-well plates with medium containing 1% fetal bovine serum and incubated overnight at 37° C. and 5% CO2. Following incubation, 20 μl of BrightGlo luminescence reagent (Promega) was added to each well of the 384-well assay plates. The plates were placed on an orbital shaker for 2 min and then luminescence was quantified using the Envision (Perkin Elmer) plate reader. Readings were normalized to DMSO only treated cells, and normalized activities were utilized for EC50 calculations using the dose-response log (inhibitor) vs. response -variable slope (four parameters) nonlinear regression feature available in GraphPad Prism 5.0 (or Dotmatics). For EC50 of >10 μM, the percent inhibition at 10 μM is provided.
Compound,inhibition at 10 µM,EC50
"CC(C)(C)CC(=O)Nc1cncc(-c2ccc3[nH]nc(-c4nc5c(-c6ccccc6F)cncc5[nH]4)c3n2)c1 [Compound 72, N-(5-(3-(7-(2-fluorophenyl)-3H-imidazo[4,5-c]pyridin-2-yl)-1H-pyrazolo[4,3-b]pyridin-5-yl)pyridin-3-yl)-3,3-dimethylbutanamide]",5.7%,> 10 µM
"O=C(Nc1cncc(-c2ccc3[nH]nc(-c4nc5c(-c6ccccc6F)cncc5[nH]4)c3n2)c1)C1CCCC1 [Compound 78, N-(5-(3-(7-(2-Fluorophenyl)-3H-imidazo[4,5-c]pyridin-2-yl)-1H-pyrazolo[4,3-b]pyridin-5-yl)pyridin-3-yl)cyclopentanecarboxamide]",6.6%,> 10 µM
"c1ccc(CNCc2cncc(-c3ccc4[nH]nc(-c5nc6c(-c7cccnc7)cncc6[nH]5)c4n3)c2)cc1 [Compound 108, N-Benzyl-1-(5-(3-(7-(pyridin-3-yl)-3H-imidazo[4,5-c]pyridin-2-yl)-1H-pyrazolo[4,3-b]pyridin-5-yl)pyridin-3-yl)methanamine]",5.3%,> 10 µM
"c1cc(-c2ccc3[nH]nc(-c4nc5c(-c6ccncc6)cncc5[nH]4)c3n2)ccn1 [Compound 130, 5-(pyridin-4-yl)-3-(7-(pyridin-4-yl)-3H-imidazo[4,5-c]pyridin-2-yl)-1H-pyrazolo[4,3-b]pyridine]",9.8%,> 10 µM
"O=C(Nc1cncc(-c2ccc3[nH]nc(-c4nc5c(-c6ccncc6)cncc5[nH]4)c3n2)c1)C1CCCCC1 [Compound 135, N-(5-(3-(7-(pyridin-4-yl)-3H-imidazo[4,5-c]pyridin-2-yl)-1H-pyrazolo[4,3-b]pyridin-5-yl)pyridin-3-yl)cyclohexanecarboxamide]",1.2%,> 10 µM
"O=C(Nc1cncc(-c2ccc3[nH]nc(-c4nc5c(-c6ccccn6)cncc5[nH]4)c3n2)c1)c1ccccc1 [Compound 151, N-(5-(3-(7-(Pyridin-2-yl)-3H-imidazo[4,5-c]pyridin-2-yl)-1H-pyrazolo[4,3-b]pyridin-5-yl)pyridin-3-yl)benzamide]",23.9%,> 10 µM
"CN1CCN(c2cncc3[nH]c(-c4n[nH]c5ccc(-c6cncc(NC(=O)C7CCCC7)c6)nc45)nc23)CC1 [Compound 246, N-(5-(3-(7-(4-Methylpiperazin-1-yl)-3H-imidazo[4,5-c]pyridin-2-yl)-1H-pyrazolo[4,3-b]pyridin-5-yl)pyridin-3-yl)cyclopentanecarboxamide]",3.9%,> 10 µM
"CN1CCN(c2cncc3[nH]c(-c4n[nH]c5ccc(-c6cncnc6)nc45)nc23)CC1 [Compound 251, 3-(7-(4-Methylpiperazin-1-yl)-3H-imidazo[4,5-c]pyridin-2-yl)-5-(pyrimidin-5-yl)-1H-pyrazolo[4,3-b]pyridine]",14.4%,> 10 µM
"O=C(Nc1cncc(-c2ccc3[nH]nc(-c4nc5c(-c6ccsc6)cncc5[nH]4)c3n2)c1)c1ccccc1 [Compound 263, N-(5-(3-(7-(Thiophen-3-yl)-3H-imidazo[4,5-c]pyridin-2-yl)-1H-pyrazolo[4,3-b]pyridin-5-yl)pyridin-3-yl)benzamide]",7.6%,> 10 µM
"c1csc(-c2cncc3[nH]c(-c4n[nH]c5ccc(-c6ccncc6)nc45)nc23)c1 [Compound 326, 5-(Pyridin-4-yl)-3-(7-(thiophen-2-yl)-3H-imidazo[4,5-c]pyridin-2-yl)-1H-pyrazolo[4,3-b]pyridine]",12.7%,> 10 µM
"O=C(Nc1cncc(-c2ccc3[nH]nc(-c4nc5c(-c6cccs6)cncc5[nH]4)c3n2)c1)C1CC1 [Compound 328, N-(5-(3-(7-(Thiophen-2-yl)-3H-imidazo[4,5-c]pyridin-2-yl)-1H-pyrazolo[4,3-b]pyridin-5-yl)pyridin-3-yl)cyclopropanecarboxamide]",3.7%,> 10 µM
"Cc1ccc(-c2cncc3[nH]c(-c4n[nH]c5ccc(-c6cncc(NC(=O)C7CCCC7)c6)nc45)nc23)s1 [Compound 386, N-(5-(3-(7-(5-Methylthiophen-2-yl)-3H-imidazo[4,5-c]pyridin-2-yl)-1H-pyrazolo[4,3-b]pyridin-5-yl)pyridin-3-yl)cyclopentanecarboxamide]",8.7%,> 10 µM
"CS(=O)(=O)NCc1cc(F)cc(-c2cncc3[nH]c(-c4n[nH]c5ccc(-c6cncc(NC(=O)c7ccccc7)c6)nc45)nc23)c1 [Compound 459, N-(5-(3-(7-(3-Fluoro-5-(methylsulfonamidomethyl)phenyl)-3H-imidazo[4,5-c]pyridin-2-yl)-1H-pyrazolo[4,3-b]pyridin-5-yl)pyridin-3-yl)benzamide]",9.6%,> 10 µM
"CS(=O)(=O)NCc1cc(F)cc(-c2cncc3[nH]c(-c4n[nH]c5ccc(-c6cncc(CNCc7ccccc7)c6)nc45)nc23)c1 [Compound 472, N-(3-(2-(5-(5-((Benzylamino)methyl)pyridin-3-yl)-1H-pyrazolo[4,3-b]pyridin-3-yl)-3H-imidazo[4,5-c]pyridin-7-yl)-5-fluorobenzyl)methanesulfonamide]",20.1%,> 10 µM
"CS(=O)(=O)NCc1cc(F)cc(-c2cncc3[nH]c(-c4n[nH]c5ccc(-c6cncnc6)nc45)nc23)c1 [Compound 475, N-(3-Fluoro-5-(2-(5-(pyrimidin-5-yl)-1H-pyrazolo[4,3-b]pyridin-3-yl)-3H-imidazo[4,5-c]pyridin-7-yl)benzyl)methanesulfonamide]",31.4%,> 10 µM
"c1cncc(-c2cncc3[nH]c(-c4n[nH]c5ccc(-c6cncc(OC7CCCCC7)c6)nc45)nc23)c1 [Compound 531, 5-(5-(Cyclohexyloxy)pyridin-3-yl)-3-(7-(pyridin-3-yl)-3H-imidazo[4,5-c]pyridin-2-yl)-1H-pyrazolo[4,3-b]pyridine]",24.3%,> 10 µM
"Oc1cncc(-c2ccc3[nH]nc(-c4nc5c(-c6cccnc6)cncc5[nH]4)c3n2)c1 [Compound 537, 5-(3-(7-(Pyridin-3-yl)-3H-imidazo[4,5-c]pyridin-2-yl)-1H-pyrazolo[4,3-b]pyridin-5-yl)pyridin-3-ol]",9.9%,> 10 µM
"c1cc(-c2cncc3[nH]c(-c4n[nH]c5ccc(-c6cncc(OC7CCNCC7)c6)nc45)nc23)ccn1 [Compound 548, 5-(5-(Piperidin-4-yloxy)pyridin-3-yl)-3-(7-(pyridin-4-yl)-3H-imidazo[4,5-c]pyridin-2-yl)-1H-pyrazolo[4,3-b]pyridine]",16.1%,> 10 µM
"c1ccc(COc2cncc(-c3ccc4[nH]nc(-c5nc6c(-c7ccncc7)cncc6[nH]5)c4n3)c2)cc1 [Compound 554, 5-(5-(Benzyloxy)pyridin-3-yl)-3-(7-(pyridin-4-yl)-3H-imidazo[4,5-c]pyridin-2-yl)-1H-pyrazolo[4,3-b]pyridine]",0%,> 10 µM
"c1cc(-c2cncc3[nH]c(-c4n[nH]c5ccc(-c6cnccn6)nc45)nc23)ccn1 [Compound 556, 5-(Pyrazin-2-yl)-3-(7-(pyridin-4-yl)-3H-imidazo[4,5-c]pyridin-2-yl)-1H-pyrazolo[4,3-b]pyridine]",9.5%,> 10 µM
"Cn1cc(-c2ccc3[nH]nc(-c4nc5c(-c6cccs6)cncc5[nH]4)c3n2)cn1 [Compound 656, 5-(1-Methyl-1H-pyrazol-4-yl)-3-(7-(thiophen-2-yl)-3H-imidazo[4,5-c]pyridin-2-yl)-1H-pyrazolo[4,3-b]pyridine]",3%,> 10 µM
"CN(C)CCOc1cncc(-c2ccc3[nH]nc(-c4nc5c(-c6cccs6)cncc5[nH]4)c3n2)c1 [Compound 663, N,N-Dimethyl-2-((5-(3-(7-(thiophen-2-yl)-3H-imidazo[4,5-c]pyridin-2-yl)-1H-pyrazolo[4,3-b]pyridin-5-yl)pyridin-3-yl)oxy)ethan-1-amine]",46.7%,> 10 µM
"Cc1ccc(-c2cncc3[nH]c(-c4n[nH]c5ccc(C6=CCNCC6)nc45)nc23)s1 [Compound 686, 3-(7-(5-Methylthiophen-2-yl)-3H-imidazo[4,5-c]pyridin-2-yl)-5-(1,2,3,6-tetrahydropyridin-4-yl)-1H-pyrazolo[4,3-b]pyridine]",52.6%,> 10 µM
"Cn1cc(-c2ccc3[nH]nc(-c4nc5c(-c6cc(F)cc(CNS(C)(=O)=O)c6)cncc5[nH]4)c3n2)cn1 [Compound 720, N-(3-Fluoro-5-(2-(5-(1-methyl-1H-pyrazol-4-yl)-1H-pyrazolo[4,3-b]pyridin-3-yl)-3H-imidazo[4,5-c]pyridin-7-yl)benzyl)methanesulfonamide]",16.4%,> 10 µM
